# Reference: US20230212571A1, “COMPOSITIONS AND METHODS FOR DELIVERING POLYNUCLEOTIDES” (NeOnc Technologies, Inc., priority 2020, published 2023)
# Columns and labels:
# Format in all cases: cell-based, human
# AVM-BEC [1] = assay: Western blot of AVM-BEC lysates
# From the text: (§1) Human surgical specimens were obtained following written informed consent from patients in accordance with Declaration of Helsinki guidelines and the Institutional Review Board (HS-04B053), at Keck School of Medicine, USC. AVM-BECs were isolated from brain tissues of patients who underwent microsurgical AVM resection. Control BECs were isolated from the structurally normal […] of patients who underwent temporal lobectomy for intractable epilepsy. Endothelial cell (EC) isolation and culture were described^5,9. (Stapleton C J, Armstrong D L, Zidovetzki R, Liu C Y, Giannotta S L, Hofman F M. Thrombospondin-1 modulates the angiogenic phenotype of human cerebral arteriovenous malformation endothelial cells. Neurosurgery. 2011; 68(5):1342-1353) (Ferreira R, Santos T, Amar A, et al. Argonaute-2 promotes miR-18a entry in human brain endothelial cells. J Am Heart Assoc. 2014; 3(3):e000968) ECs were only used between passages 3-5. Experiments were performed under shear flow conditions (12 dyn/cm^2) to reproduce arterial flow^6. (Ferreira R, Santos T, Amar A, et al. MicroRNA-18a improves human cerebral arteriovenous malformation endothelial cell function. Stroke. 2014; 45(1):293-297). For hypoxic experiments, cells were cultured in a Galaxy 48R (Eppendorf) incubator at 3% O2. MicroRNAs were co-administered with Ago-2 to increase the cellular uptake of miR-18a^9 (Ferreira R, Santos T, Amar A, et al. Argonaute-2 promotes miR-18a entry in human brain endothelial cells. J Am Heart Assoc. 2014; 3(3):e000968) (FIG. 9). Methods regarding cell treatments and transfections were included in Data.
# (§2) MiR-18a (hsa-miR-18a-5p, 40 nM, Dharmacon) or a scramble microRNA (40 nM, Dharmacon) in nuclease-free water was added with argonaute 2 (Ago-2, 0.4 nM, Abcam) as the microRNA carrier and stabilizer^9. (Ferreira R, Santos T, Amar A, et al. Argonaute-2 promotes miR-18a entry in human brain endothelial cells. J Am Heart Assoc. 2014; 3(3):e000968). No transfection reagent was used with miR-18a or scramble microRNA treatments. Recombinant human TSP-1 (R&D Systems) stock solution was prepared in PBS and further diluted in culture medium to be used at a final concentration of 1000 ng/mL. Cells were treated during 24 h for mRNA and 48 h for protein expression studies. NEO100 (NeOnc Technologies) stock was prepared in DMSO and used immediately or stored at −20° C.
# The levels of angiogenesis-related proteins were analyzed using the Proteome Profiler™ Human Angiogenesis Array kit (R&D Systems) following the manufacturer's instructions. The protocol for western blot was published^10. (Marín-Ramos N I, Alonso D, Ortega-Gutiérrez S, et al. New inhibitors of angiogenesis with antitumor activity in vivo. J Med Chem. 2015; 58(9):3757-3766). Information about antibodies used was included in Table 1. Membranes were visualized and quantified using a C-Digit Blot scanner (Li-Cor) or a iBright CL1000 (Thermo Fisher Scientific).
# BMP4 3′UTR = BMP4 3′UTR luciferase reporter in ECs; conditions: vs untreated or scramble microRNA, n=6
# Protocol: (§3) Plasmid constructs pcDNA3-ALK2^WT (Addgene #80870) and pcDNA3-ALK2^Q207D (Addgene #80871) were a gift from Aristidis Moustakas^7. (Meyer B, Schaller C, Frenkel C, Ebeling B, Schramm J. Distributions of local oxygen saturation and its response to changes of mean arterial blood pressure in the cerebral cortex adjacent to arteriovenous malformations. Stroke. 1999; 30(12):2623-2630) 10^4 AVM-BEC were seeded 24 h before transfection. The plasmid vector containing the 3′ untranslated region (3′UTR) of human BMP4, pRP [Exp]-Puro-CMV>Luciferase:{hBMP4_3′UTR}, was constructed and packaged by VectorBuilder. The vector ID is VB200205-1078zdv, which can be used to retrieve detailed information about the vector on vectorbuilder.com. Transient transfections were performed with Lipofectamine RNAiMax (Thermo Fisher Scientific) according to the manufacturer's instructions. After 4 h, medium was replaced by fresh medium containing microRNA.
# For the experiments regarding the direct binding of miR-18a to BMP4 (information about the plasmid was included in Methods), the luciferase activity of the hBMP4 3′UTR was read in a Varioskan™ LUX multimode microplate reader (Thermo Fisher Scientific).
# BEC = assay: ELISA of control BEC supernatants
# From the text: as §1
# (§4) Small interfering RNA transfection was performed as previously described^5. Briefly, ECs were transfected with small interfering RNA (siRNA) against ID1 or PAI-1 (Thermo Fisher Scientific), or small interfering control (Santa Cruz Biotechnology) constructs using Lipofectamine RNAiMax (Thermo Fisher Scientific) per the manufacturer's instructions. Knockdown of ID1 or PAI-1 was confirmed by quantitative real-time polymerase chain reaction as described^6 (FIG. 19). The sequences of the forward and reverse primers for ID1 and PAI-1 were included in Table 2.
# as §3
# as §2, with “C. […]” for “C.”
# AVM-BEC [2] = assay: ELISA of AVM-BEC supernatants
# From the text: as §1, §4, §3
# as §2, with “C. […]” for “C.”
# [3] = control BEC supernatants, normoxia
substance,measurement,setting,value
hsa-miR-18a-5p (UAGGUGCAUCUAGUGCAGAUAG; chemistry not given here; listed as Homo sapiens) [small non-coding RNA molecule involved in post-transcriptional regulation of gene expression; Dharmacon],MMP9 protein levels (western blot),AVM-BEC [1]; AVM-BEC,not significantly (P=0.9409) affected
same,ratio MMP2/MMP9 protein levels,AVM-BEC [1]; AVM-BEC,lowers the ratio MMP2/MMP9
same,ADAM10 protein levels (western blot),"AVM-BEC [1]; AVM-BEC, P<0.001",significantly decreased
same,MMP2 protein levels (western blot),"AVM-BEC [1]; AVM-BEC, P=0.0132",significantly decreased
same,levels of TGF-β (western blot),"AVM-BEC [1]; AVM-BEC, P>0.9999",not significantly changed
same,phosphorylation levels of Smad3,"AVM-BEC [1]; AVM-BEC, P>0.9999",Neither the phosphorylation levels of Smad3 nor the total levels of Smad4 were altered
same,total levels of Smad4,"AVM-BEC [1]; AVM-BEC, P>0.9999",Neither the phosphorylation levels of Smad3 nor the total levels of Smad4 were altered
same,phosphorylation levels of Smad1/5,"AVM-BEC [1]; AVM-BEC, vs scramble",significantly (P<0.0001) decreased
same,PAI-1 protein levels (western blot),"AVM-BEC [1]; patient-derived AVM-BEC, vs scramble microRNA, P<0.001, n=8",decreased
same,BMP4-3′-UTR-Luc activity,BMP4 3′UTR,significantly (P<0.001) decreased
same,VEGF secretion (ELISA),"BEC; BEC transfected with ALK2, P>0.9999",No significant changes
same,levels of secreted PAI-1,BEC; [3],without affecting control BEC
same,levels of secreted VEGF,BEC; [3],without affecting control BEC
same,levels of secreted VEGF,BEC; control BEC transfected with siCTL,without affecting control BEC
same,VEGF levels (ELISA),"AVM-BEC [2]; ALK2^WT-transfected AVM-BEC, P=0.0030",decrease VEGF levels
same,levels of secreted TGF-β (ELISA),"AVM-BEC [2]; AVM-BEC supernatants, P>0.9999",not significantly changed
same,levels of secreted PAI-1,"AVM-BEC [2]; AVM-BEC supernatants, normoxia, vs scramble microRNA",decreased
same,levels of secreted VEGF,"AVM-BEC [2]; AVM-BEC supernatants, normoxia, decrease only reached significance with miR-18a",decreased
same,VEGF levels (ELISA),"AVM-BEC [2]; AVM-BEC transfected with constitutively active ALK2^Q207D, P>0.9999",unable to decrease VEGF levels
same,levels of secreted VEGF,"AVM-BEC [2]; AVM-BEC transfected with siCTL, P=0.0007 vs scramble",decreased
same,effects of miR-18a in the decrease of secreted VEGF levels,AVM-BEC [2]; AVM-BEC transfected with siPAI-1,lost
same,PAI-1 secretion,"AVM-BEC [2]; AVM-BEC, hypoxia 3% oxygen",reduction of PAI-1 secretion caused by miR-18a was still observed
